“And” between values parts separate entries of the source, which are not always exact repeats. Equal values may be shown once. Inconclusive results and toxic doses are left out. No stated cut-off is given here; in the data, active means T/C of 150% or more; inactive means T/C below 125%.
System: L1210 leukemia ip in BDF1 mice, survival T/C
Assay: NCI In Vivo Anticancer Drug Screen. Data for tumor model L1210 Leukemia (intraperitoneal) in B6D2F1 (BDF1) mice
Conditions: endpoint: mean survival time, higher = longer survival
Method in brief: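 Mice bearing the transplanted tumor received compound or vehicle. Survival of the treated group was divided by that of the vehicle-treated control group to give the ratio.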

[1] = dose: 100.0 mg/kg/injection, schedule: Q01DX009 (ip), vehicle: Klucel (hydroxypropylcellulose) (HPC)
[2] = dose: 100.0 mg/kg/injection, schedule: Q04DX003 (ip), vehicle: Klucel (hydroxypropylcellulose) (HPC)
[3] = dose: 200.0 mg/kg/injection, schedule: Q01DX009 (ip), vehicle: Klucel (hydroxypropylcellulose) (HPC)
[4] = dose: 200.0 mg/kg/injection, schedule: Q04DX003 (ip), vehicle: Klucel (hydroxypropylcellulose) (HPC)
[5] = dose: 400.0 mg/kg/injection, schedule: Q01DX009 (ip), vehicle: Klucel (hydroxypropylcellulose) (HPC)
[6] = dose: 400.0 mg/kg/injection, schedule: Q04DX003 (ip), vehicle: Klucel (hydroxypropylcellulose) (HPC)
[7] = dose: 100.0 mg/kg/injection, schedule: Q01DX009 (ip), vehicle: saline with Tween-80
[8] = dose: 100.0 mg/kg/injection, schedule: Q04DX003 (ip), vehicle: saline with Tween-80
[9] = dose: 200.0 mg/kg/injection, schedule: Q01DX009 (ip), vehicle: saline with Tween-80
[10] = dose: 200.0 mg/kg/injection, schedule: Q04DX003 (ip), vehicle: saline with Tween-80
[11] = dose: 400.0 mg/kg/injection, schedule: Q04DX003 (ip), vehicle: saline with Tween-80
[12] = dose: 100.0 mg/kg/injection, schedule: Q04DX002 (ip), vehicle: Klucel (hydroxypropylcellulose) (HPC)
[13] = dose: 100.0 mg/kg/injection, schedule: Q04DX003 (ip), vehicle: saline
[14] = dose: 200.0 mg/kg/injection, schedule: Q04DX003 (ip), vehicle: saline
[15] = dose: 50.0 mg/kg/injection, schedule: Q01DX009 (ip), vehicle: saline with Tween-80
[16] = dose: 12.5 mg/kg/injection, schedule: Q01DX009 (ip), vehicle: saline with Tween-80

Measured: T/C

S=c1sc2ccccc2n1CN1CCCCC1
inactive: [1] 95 % of control | [2] 92 % of control | [3] 103 % of control | [4] 97 % of control | [5] 105 % of control | [6] 96 % of control

CN(C)C(=NN=C(N(C)C)N(C)C)N(C)C
inactive: dose: 12.5 mg/kg/injection, schedule: Q04DX003 (sc), vehicle: saline 102 % of control | dose: 25.0 mg/kg/injection, schedule: Q04DX003 (sc), vehicle: saline 107 % of control | dose: 50.0 mg/kg/injection, schedule: Q04DX003 (sc), vehicle: saline 100 % of control | dose: 100.0 mg/kg/injection, schedule: Q04DX003 (sc), vehicle: saline 98 % of control

Nc1[nH]nc2nccnc12
inactive: [7] 103 % of control | [8] 96 % of control | [9] 98 % of control | [10] 97 % of control | dose: 400.0 mg/kg/injection, schedule: Q01DX009 (ip), vehicle: saline with Tween-80 95 % of control | [11] 102 % of control

Cc1cc(CCl)c(C)cc1CCl
inactive: dose: 25.0 mg/kg/injection, schedule: Q04DX003 (ip), vehicle: saline with Tween-80 96 % of control | dose: 50.0 mg/kg/injection, schedule: Q04DX003 (ip), vehicle: saline with Tween-80 90 % of control

Nc1nc2ncc(CNc3nc(C(=O)NC(CCC(=O)O)C(=O)O)cs3)nc2c(=O)[nH]1 (stereo not given)
inactive: dose: 25.0 mg/kg/injection, schedule: Q01DX009 (ip), vehicle: alkali diluted with saline 97 % of control | dose: 50.0 mg/kg/injection, schedule: Q01DX009 (ip), vehicle: alkali diluted with saline 93 % of control | dose: 75.0 mg/kg/injection, schedule: Q01DX001 (ip), vehicle: other 101 % of control | dose: 75.0 mg/kg/injection, schedule: Q01DX009 (ip), vehicle: alkali diluted with saline 103 % of control | dose: 100.0 mg/kg/injection, schedule: Q01DX009 (ip), vehicle: alkali diluted with saline 92 % of control | dose: 150.0 mg/kg/injection, schedule: Q01DX001 (ip), vehicle: other 103 % of control

CCN(/C=C1\CCOC1=O)CC
inactive: dose: 100.0 mg/kg/injection, schedule: Q04DX002 (ip), vehicle: saline 101 % of control | dose: 200.0 mg/kg/injection, schedule: Q04DX002 (ip), vehicle: saline 97 % of control

O=C1NC2C3CC(c4ccccc43)C12 (stereo not given)
inactive: [12] 101 % of control | dose: 200.0 mg/kg/injection, schedule: Q04DX002 (ip), vehicle: Klucel (hydroxypropylcellulose) (HPC) 108 % of control | dose: 400.0 mg/kg/injection, schedule: Q04DX002 (ip), vehicle: Klucel (hydroxypropylcellulose) (HPC) 111 % of control

O=C1c2ccccc2C(=Cc2c3ccccc3cc3ccccc23)c2ccccc21
inactive: dose: 25.0 mg/kg/injection, schedule: Q04DX002 (ip), vehicle: Klucel (hydroxypropylcellulose) (HPC) 97 % of control | dose: 50.0 mg/kg/injection, schedule: Q04DX002 (ip), vehicle: Klucel (hydroxypropylcellulose) (HPC) 106 % of control | [12] 94 % of control

NNc1ccccc1Br
inactive: [13] 101 % of control | [14] 102 % of control

CNNC(=O)c1ccncc1
inactive: dose: 62.0 mg/kg/injection, schedule: Q01DX015 (ip), vehicle: water 91 % of control | dose: 125.0 mg/kg/injection, schedule: Q01DX015 (ip), vehicle: water 98 % of control

Cc1ccc(C2NC(=O)c3ccccc3N2)c(C)c1 (stereo not given)
inactive: dose: 50.0 mg/kg/injection, schedule: Q01DX009 (ip), vehicle: Klucel (hydroxypropylcellulose) (HPC) 100 % of control | [1] 94 % of control and 99 % of control | [2] 103 % of control | dose: 150.0 mg/kg/injection, schedule: Q01DX009 (ip), vehicle: Klucel (hydroxypropylcellulose) (HPC) 93 % of control | [3] 106 % of control | [4] 95 % of control | [5] 96 % of control | [6] 95 % of control

CCCCCCCC(O)CCCC (stereo not given)
inactive: [1] 100 % of control | [2] 95 % of control | [3] 104 % of control | [4] 103 % of control | [5] 104 % of control | [6] 98 % of control

CCCCC(CC)COC(=O)C[N+](C)(C)CCOC(c1ccccc1)c1ccccc1 (stereo not given)
inactive: dose: 6.25 mg/kg/injection, schedule: Q04DX003 (ip), vehicle: saline with Tween-80 91 % of control | dose: 12.5 mg/kg/injection, schedule: Q04DX003 (ip), vehicle: saline with Tween-80 97 % of control

NN(C(=O)c1ccccc1)C1CCCCC1
inactive: [8] 104 % of control | [10] 96 % of control | [11] 96 % of control

CN1CCN(Cc2cc(Cl)c3cccnc3c2O)CC1
inactive: dose: 75.0 mg/kg/injection, schedule: Q01DX001 (ip), vehicle: saline 100 % of control | dose: 150.0 mg/kg/injection, schedule: Q01DX001 (ip), vehicle: saline 106 % of control

CN(C)N=C(Cc1ccccc1)Cc1ccccc1
inactive: [15] 97 % of control | [7] 103 % of control | [8] 103 % of control | [10] 106 % of control

O=C1C(Cl)=CC(=NS(=O)(=O)c2ccccc2)C=C1Cl
inactive: dose: 6.25 mg/kg/injection, schedule: Q01DX009 (ip), vehicle: saline with Tween-80 96 % of control | [16] 96 % of control

CCOc1ccc(N2C(C#N)c3ccccc3OC2c2ccccc2O)cc1 (stereo not given)
inactive: [1] 97 % of control | [3] 97 % of control | [5] 101 % of control

COC(=O)NS(=O)(=O)C=C(c1ccccc1)c1ccccc1
inactive: [1] 106 % of control | [2] 96 % of control | [3] 106 % of control | [4] 108 % of control | [6] 86 % of control

CCC(C)(CC)OC(N)=O
inactive: [16] 100 % of control | dose: 25.0 mg/kg/injection, schedule: Q01DX009 (ip), vehicle: saline with Tween-80 102 % of control | dose: 25.0 mg/kg/injection, schedule: Q04DX003 (ip), vehicle: saline 100 % of control | [15] 94 % of control | dose: 50.0 mg/kg/injection, schedule: Q04DX003 (ip), vehicle: saline 100 % of control | [7] 105 % of control | [13] 102 % of control | [9] 93 % of control | [14] 96 % of control

— PubChem BioAssay AID248 (DTP/NCI, 2004)
